Data taken from article PMC11096480, “The road to evolution of ProTx2: how to be a subtype-specific inhibition of human Nav1.7” (Frontiers in Pharmacology, 2024).
“Also recorded” adds a separate entry of the source. Where no end group is shown, it is not given here.

Key:
KM mice [1] = experiment: formalin-induced paw-licking test; assay type: in vivo
Method: Male KM mice (18–22 g) were obtained from Liaoning Changsheng Biotechnology Co., Ltd. The mice were acclimated for 1 week at 18°C–22°C and 50%–70% humidity, following approval by the Animal Ethics Committee of Shenyang Pharmaceutical University, China. The pain response was assessed using a formalin-induced paw-licking test. The saline solution, 5 mg/kg morphine, commonly used analgesic medications in clinical practice, or 0.75 mg/kg peptides, ProTx II, and its mutants, were injected via the tail vein to relief the pain. After half an hour, a 20-μL 5% (v/v) formalin solution was administered as an activator to induce pain in mice (n = 10) ([Miranda et al., 2007]). The cumulative pain behavior that occurred 0–5 min (phase I, an immediate nociceptive phase) and 20–60 min (phase II, a later inflammatory phase) after injection was recorded for 60 min at 5 min intervals in individual cages to measure the total licking time in phases I and II, respectively.

[2] = molecular target: human voltage-gated sodium channel Nav1.4, on CHO cells (human) (UniProt P35499)
UniProt P35499, sequence (P35499 whole entry): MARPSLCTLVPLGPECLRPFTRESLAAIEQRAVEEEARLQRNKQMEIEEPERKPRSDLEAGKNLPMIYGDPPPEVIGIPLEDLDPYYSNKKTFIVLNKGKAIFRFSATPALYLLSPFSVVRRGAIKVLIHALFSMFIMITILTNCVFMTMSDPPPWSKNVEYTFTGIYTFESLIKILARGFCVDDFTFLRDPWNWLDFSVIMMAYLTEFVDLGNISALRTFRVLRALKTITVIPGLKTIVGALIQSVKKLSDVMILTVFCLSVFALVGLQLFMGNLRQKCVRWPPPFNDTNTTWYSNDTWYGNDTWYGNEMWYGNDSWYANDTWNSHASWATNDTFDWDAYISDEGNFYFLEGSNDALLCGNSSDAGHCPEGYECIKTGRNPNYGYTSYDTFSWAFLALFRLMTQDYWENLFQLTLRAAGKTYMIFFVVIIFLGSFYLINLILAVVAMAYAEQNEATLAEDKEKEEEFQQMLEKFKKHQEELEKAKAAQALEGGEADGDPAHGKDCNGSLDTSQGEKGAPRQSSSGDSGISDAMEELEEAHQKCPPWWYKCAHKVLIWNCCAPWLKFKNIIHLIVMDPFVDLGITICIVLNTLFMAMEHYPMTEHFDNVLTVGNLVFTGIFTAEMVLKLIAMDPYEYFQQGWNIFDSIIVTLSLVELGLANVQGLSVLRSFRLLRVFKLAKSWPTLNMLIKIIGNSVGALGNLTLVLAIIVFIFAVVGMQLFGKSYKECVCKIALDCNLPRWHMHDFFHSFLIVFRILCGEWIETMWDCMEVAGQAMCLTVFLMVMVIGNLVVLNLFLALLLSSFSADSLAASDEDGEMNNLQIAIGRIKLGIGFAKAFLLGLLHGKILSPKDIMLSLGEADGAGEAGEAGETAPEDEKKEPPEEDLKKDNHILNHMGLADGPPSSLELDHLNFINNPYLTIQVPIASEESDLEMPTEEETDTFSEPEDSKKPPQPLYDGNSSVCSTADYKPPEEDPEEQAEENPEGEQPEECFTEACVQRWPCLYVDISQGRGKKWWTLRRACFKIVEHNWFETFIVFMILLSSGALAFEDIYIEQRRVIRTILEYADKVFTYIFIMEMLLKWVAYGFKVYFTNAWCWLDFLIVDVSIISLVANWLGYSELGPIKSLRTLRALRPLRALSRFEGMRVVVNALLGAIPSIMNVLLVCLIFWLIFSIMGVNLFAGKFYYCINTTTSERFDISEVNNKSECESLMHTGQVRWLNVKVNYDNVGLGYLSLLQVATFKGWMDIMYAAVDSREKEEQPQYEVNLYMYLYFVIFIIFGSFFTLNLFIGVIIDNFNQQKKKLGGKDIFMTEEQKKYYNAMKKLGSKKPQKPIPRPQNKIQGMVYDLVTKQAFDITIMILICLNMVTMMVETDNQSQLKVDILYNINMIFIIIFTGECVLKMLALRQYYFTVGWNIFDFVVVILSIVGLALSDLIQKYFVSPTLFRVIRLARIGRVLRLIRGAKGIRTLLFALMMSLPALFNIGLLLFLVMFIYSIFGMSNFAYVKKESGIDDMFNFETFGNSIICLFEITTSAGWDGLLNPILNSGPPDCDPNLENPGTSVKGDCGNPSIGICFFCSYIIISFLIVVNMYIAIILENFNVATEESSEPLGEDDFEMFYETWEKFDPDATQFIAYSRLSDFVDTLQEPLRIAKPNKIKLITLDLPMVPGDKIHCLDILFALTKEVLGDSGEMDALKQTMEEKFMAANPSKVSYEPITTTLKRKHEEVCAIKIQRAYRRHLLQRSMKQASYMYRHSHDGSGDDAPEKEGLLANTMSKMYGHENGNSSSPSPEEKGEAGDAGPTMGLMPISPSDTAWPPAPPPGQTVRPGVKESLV

[3] = molecular target: human voltage-gated sodium channel Nav1.7, on CHO cells (human) (UniProt Q15858)
UniProt Q15858, sequence (Q15858 whole entry): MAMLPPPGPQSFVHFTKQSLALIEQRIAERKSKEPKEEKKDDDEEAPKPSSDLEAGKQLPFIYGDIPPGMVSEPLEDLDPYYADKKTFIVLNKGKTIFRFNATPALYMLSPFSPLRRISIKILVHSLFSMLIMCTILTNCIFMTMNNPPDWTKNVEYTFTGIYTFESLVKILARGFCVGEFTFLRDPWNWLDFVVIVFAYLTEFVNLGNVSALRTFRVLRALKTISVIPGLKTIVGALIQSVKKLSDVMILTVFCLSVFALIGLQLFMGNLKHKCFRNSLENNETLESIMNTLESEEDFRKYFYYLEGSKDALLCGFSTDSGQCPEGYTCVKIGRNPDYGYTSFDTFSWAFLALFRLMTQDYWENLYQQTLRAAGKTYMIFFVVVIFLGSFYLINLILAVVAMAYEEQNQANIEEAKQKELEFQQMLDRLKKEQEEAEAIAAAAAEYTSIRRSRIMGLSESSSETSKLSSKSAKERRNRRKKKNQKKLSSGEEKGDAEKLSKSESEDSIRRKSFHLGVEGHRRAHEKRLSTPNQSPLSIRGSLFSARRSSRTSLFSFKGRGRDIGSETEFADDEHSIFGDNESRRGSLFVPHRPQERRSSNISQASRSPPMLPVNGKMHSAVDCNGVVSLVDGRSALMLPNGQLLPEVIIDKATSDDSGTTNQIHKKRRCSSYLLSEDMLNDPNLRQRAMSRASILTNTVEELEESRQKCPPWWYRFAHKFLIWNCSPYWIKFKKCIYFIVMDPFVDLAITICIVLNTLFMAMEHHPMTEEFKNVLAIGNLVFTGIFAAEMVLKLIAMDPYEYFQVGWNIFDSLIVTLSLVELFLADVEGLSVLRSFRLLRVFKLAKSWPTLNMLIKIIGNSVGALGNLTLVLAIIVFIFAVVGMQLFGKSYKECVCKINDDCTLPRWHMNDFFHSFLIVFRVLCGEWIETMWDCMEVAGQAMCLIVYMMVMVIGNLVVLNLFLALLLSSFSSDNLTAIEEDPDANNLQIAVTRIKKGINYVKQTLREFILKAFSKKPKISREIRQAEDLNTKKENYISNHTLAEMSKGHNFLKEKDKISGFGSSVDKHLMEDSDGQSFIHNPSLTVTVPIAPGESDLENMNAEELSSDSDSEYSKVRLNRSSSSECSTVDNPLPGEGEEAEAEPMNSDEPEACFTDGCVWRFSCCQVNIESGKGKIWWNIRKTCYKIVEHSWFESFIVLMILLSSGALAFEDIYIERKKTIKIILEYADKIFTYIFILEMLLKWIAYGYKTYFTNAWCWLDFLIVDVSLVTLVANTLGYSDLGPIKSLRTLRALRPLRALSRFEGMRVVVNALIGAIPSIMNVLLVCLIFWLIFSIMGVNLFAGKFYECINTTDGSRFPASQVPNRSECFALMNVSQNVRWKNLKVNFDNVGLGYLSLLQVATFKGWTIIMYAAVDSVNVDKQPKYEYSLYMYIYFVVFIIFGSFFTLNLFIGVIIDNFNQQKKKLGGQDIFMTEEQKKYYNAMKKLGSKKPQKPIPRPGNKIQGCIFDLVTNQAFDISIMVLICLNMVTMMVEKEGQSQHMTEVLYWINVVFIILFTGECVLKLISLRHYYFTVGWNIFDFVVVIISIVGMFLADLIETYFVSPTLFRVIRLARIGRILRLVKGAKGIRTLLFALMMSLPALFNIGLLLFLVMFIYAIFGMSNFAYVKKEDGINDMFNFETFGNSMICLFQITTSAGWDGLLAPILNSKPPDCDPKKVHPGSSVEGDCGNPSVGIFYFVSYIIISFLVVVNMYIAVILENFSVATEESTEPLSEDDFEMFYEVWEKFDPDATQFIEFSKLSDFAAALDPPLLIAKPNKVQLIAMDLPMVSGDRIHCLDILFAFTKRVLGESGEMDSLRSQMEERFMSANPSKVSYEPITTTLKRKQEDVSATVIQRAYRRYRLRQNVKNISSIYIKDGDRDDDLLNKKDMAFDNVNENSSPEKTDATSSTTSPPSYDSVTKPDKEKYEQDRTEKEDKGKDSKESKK

KM mice [4] = experiment: forced swimming test; assay type: in vivo
Method: Additionally, a forced swimming test measured endurance following 7 days of treatment with ProTx2 or its mutants ([Porsolt et al., 1977]; [Galeotti et al., 2002]; [Xu et al., 2017]). Fifty male KM mice were randomly divided into five groups with 10 mice in each group. The groups were classified as normal saline control, ProTx2, R13A, R13D, and K27Y.
Following a 7-day treatment regimen, mice received injections of ProTx2 or its mutants and underwent forced swimming tests 20 min after the final treatment.

C2C12 cells = experiment: C2C12 cell viability (CCK8 assay); assay type: cell-based, mouse; settings: CCK8, 450 nm, 18-h exposure, 0-160 μg/mL, serum-free, n = 5; R13D effect particularly between 100 and 160 μg/mL; relative to wild-type peptide
Method: (§1) Nav1.4-CHO cells and Nav1.7-CHO cells were maintained in Iscove’s modified Dulbecco’s medium (Gibco) supplemented with 10% (v/v) fetal bovine serum (FBS) and 200 μg/mL G418 (Sigma). All cells were cultured at 37 °C and 5% CO2 atmosphere. Mouse myoblasts C2C12, obtained from the Stem Cell Bank of The Chinese Academy of Sciences, were grown in Dulbecco’s modified Eagle‘s medium (DMEM) enriched with 10% heat-inactivated FBS, 2 mM L glutamine, 100 U/mL of penicillin, and 100 μg/mL of streptomycin. The C2C12 cells typically reached confluence in 3–5 days in 75-T flasks. For passaging, monolayers were treated with 0.25% trypsin for 3–5 min, rinsed twice with DMEM, and sub-cultured at a ratio of 1:4. Similarly, the Chinese hamster ovary (CHO) cells were cultured in IMDM medium supplemented with 10% fetal bovine serum, 1% penicillin/streptomycin, 100 μM hypoxanthine, and 16 μM thymidine. When 90% confluence was achieved, cells were separated by 0.25% trypsin EDTA, and patch clamp electrophysiology experiments were carried out.
C2C12 cell viability in response to ProTx2 or it mutants was evaluated using the CCK8 assay ([Pan et al., 2019]; [Ge et al., 2020]). […] After 18 h of treatment, cell viability was assessed by measuring the absorbance at 450 nm, following the addition of the CCK-8 reagent.

hNav1.7 = experiment: whole-cell patch clamp, CHO-Nav1.7 sodium current; assay type: cell-based, human
Method: as §1
(§2) Automatic electrophysiological platforms (NPC-1 and Port-a-Patch systems, […], Munich, Germany) and EPC10 amplifiers (HEKA Elektronik, Lambrecht, Germany) assessed the effects of recombinant ProTx2 and its mutants on CHO-Nav1.4 and CHO-Nav1.7. […]

hNav1.4 = experiment: whole-cell patch clamp, CHO-Nav1.4 sodium current; assay type: cell-based, human
Method: as §1, §2

CN1CC[C@]23c4c5ccc(O)c4O[C@H]2[C@@H](O)C=C[C@H]3[C@H]1C5 [morphine, reference compound]
total licking time, phase I (morphine) (KM mice [1]; mouse, in vivo, 5 mg/kg): 7.5 ± 1.6 s | total licking time, phase II (morphine) (KM mice [1]; mouse, in vivo, 5 mg/kg): 42.1 ± 6.1 s

ProTx2 (Protoxin-II), wild type, recombinant (from UniProt P83476 1-30) (peptide)
peak sodium current amplitude (normalized) of hNav1.4-CHO cells, whole-cell patch clamp, peptide at 1 μM [2]: 50% | peak sodium current amplitude (normalized) of hNav1.7-CHO cells, whole-cell patch clamp, peptide at 1 μM [3]: 82%

ProTx2 mutant R13D, recombinant (from UniProt P83476 1-30) (peptide)
peak sodium current amplitude (normalized) of hNav1.4-CHO cells, whole-cell patch clamp, peptide at 1 μM [2]: 59% | peak sodium current amplitude (normalized) of hNav1.7-CHO cells, whole-cell patch clamp, peptide at 1 μM [3]: 68%

R13D: single-point mutation (R13D) in ProTx2 (YCQKWMWTCDSEDKCCEGMVCRLWCKKKLW; ends and bridges not checked; cysteine pairing not given here)
analgesic effect (KM mice [1]; formalin model, 0.75 mg/kg peptide, tail vein, versus wild-type ProTx2, 0.75 mg/kg): maintained the analgesic effect in mice; also recorded: significantly alleviated pain in both the acute and inflammatory phases, outperforming the wild-type ProTx2 | total licking time, phase I (KM mice [1]; phase I (0–5 min), 0.75 mg/kg peptide, tail vein, half an hour before 20 μL 5% formalin, male KM mice, n = 10): 33.5 ± 1.6 s | total licking time, phase II (KM mice [1]; phase II (20–60 min), 0.75 mg/kg peptide, tail vein, half an hour before 20 μL 5% formalin, male KM mice, n = 10): 128.0 ± 5.2 s | swimming endurance / muscular toxicity (KM mice [4]; 7-day treatment, test 20 min after final treatment, male KM mice, n = 10, versus wild-type ProTx2): significantly prolonged endurance compared to the wild-type ProTx2 group, suggesting reduced muscular toxicity (p < 0.05) | muscle toxicity (KM mice [4]; summary in abstract, compared with ProTx2): dramatically reducing its muscle toxicity compared with ProTx2 | C2C12 cellular viability (C2C12 cells): significantly improved cellular viability in a concentration-dependent manner, particularly between 100 and 160 μg/mL | peak sodium current amplitude, hNav1.7 (hNav1.7; 1 μM, normalized Na+ peak current at −30 mV, CHO cells, whole-cell, holding −80 mV, 22°C, 10 cells per set, R13D vs ProTx2 p < 0.01): 68% | inhibition of hNav1.7 current (hNav1.7; CHO-Nav1.7, whole-cell, relative to ProTx2 for R13D): pronouncedly intensified inhibition of hNav1.7 | peak sodium current amplitude, hNav1.4 (hNav1.4; 1 μM, normalized Na+ peak current at −30 mV, CHO cells, whole-cell, holding −80 mV, 22°C, 10 cells per set): 59% | inhibition of hNav1.4 current (hNav1.4; CHO-Nav1.4, whole-cell, relative to ProTx2 for R13D): marginally diminished effect on hNav1.4
